The source of these data is US20250034108A1, “SODIUM CHANNEL BLOCKERS” (NOVARTIS AG, priority 2023, published 2025).

SMILES strings stand for the structures.

Data set [1] addresses T1, human Nav1.5 (Homo sapiens (Human), UniProt Q14524). The data set can be described thus: Qpatch automated patch-clamp, peak Nav1.5 current inhibition, 5-Hz AF-like assay (holding potential -85 mV). It counts as cell-based. The source says: (§1) Electrophysiology was used to measure the ionic currents in isolated living cells using automated patch-clamp recording, performed using an automated patch-clamp machine called Qpatch (Sophion Bioscience). Two different assay conditions were used to identify compounds with atrial-selective potential. The 5-Hz AF-like assay has more depolarized holding potential at −85 mV to mimic atrial resting membrane potential (RMP) and was used to identify compounds of strong rate-dependence. Active, rate-dependent compounds were then screened at 1 Hz (i.e., sinus rate) at the holding potential of −100 mV to mimic the ventricular scenario and help identify compounds with the largest potency separation or attenuation from the 5-Hz AF-like assay. Such compounds have the potential for treating AF without the QRS liability inherent to Class Ic drugs.
(§2) The sodium current conducted through a cell (via Nav1.5) or electrical signals were processed through a low-pass filter at 5 KHz, re-digitalized and acquired at 20 kHz. Series resistance was not compensated and leak subtraction was performed.
(§3) 1 to 3 million Chinese Hamster Ovary cells (also known as CHO-K1) stably expressing human Nav1.5 were seeded into […] culture flasks with 25 mL medium (consisting of Gibco Dulbecco's Modified Eagle Medium as a base medium with 1% MEM non-essential amino acids, 400 μg/mL Geneticin, 5 μg/mL puromycin and 10% fetal bovine serum) 48-72 hours prior to the experiments. On the day of the experiment, cells were washed once with phosphate-buffered saline (also known as PBS; Gibco) detached with Detachin™ (Genlantis), and re-suspended in CHO—S-SFM II media (Gibco) at 200,000 cells/mL. The CHO—S-SFM II was replaced with assay solutions prior to the assays. Whole-cell currents were recorded at room temperature in the whole-cell configuration. The external aqueous assay solution (pH=7.4; Osm=307-315) contained the following (the concentration for each component is expressed in parentheses in mM): NaCl (140 mM), KCl (4 mM), CaCl2) (2 mM), MgCl2 (1 mM), 4-(2-hydroxyethyl)-1-piperazineethanesulfonic acid, also known as HEPES (10 mM), and glucose (5 mM). The internal aqueous assay solution (pH=7.2; Osm=292-295) contained the following (the concentration for each component is expressed in parentheses in mM): CsF (110 mM), CsCl (10 mM), NaCl (10 mM), HEPES (10 mM), and ethylene glycolbis(β-aminoethyl ether)-N,N,N′,N′-tetraacetic acid, also known as EGTA (10 mM).
To assess peak Nav1.5 current inhibition in an atrial fibrillation-mimicking condition (Nav1.5 IC50 (5 Hz, AF-like rate) (μM)), compounds were first prepared at 10 mM in DMSO, and cells were pre-incubated with test compounds at each concentration for 3 min. in an ascending order of 0, 0.37, 1.1, 3.3, 10 and 30 μM. An atrial action potential-like protocol consisting of a voltage ramp (+10 mV to −85 mV for a 150 ms duration and a holding potential at −85 mV) was then applied to cells at 5 Hz for 12 s until no further current change or inhibition was observed. The percent inhibition (expressed as ([Iafter compound treatment/Ibefore compound treatment]×100%) is calculated by normalizing the peak current amplitude at the last pulse of each of the 6 compound concentrations by the amplitude before exposure to the test compound. The compiled data was further normalized by vehicle control (DMSO) to account for Nav1.5 current run-down, and IC50 was calculated by Matlab (MathWorks, USA).
On the technique in general: The patch-clamp technique gives a direct electrical read-out from membranes.

For data set [2], the target named is T1, human Nav1.5. The data set can be described thus: Qpatch automated patch-clamp, peak Nav1.5 current inhibition, 1 Hz with 50 nM ATX-II (holding potential -100 mV). The conditions noted are these: CHO-K1 cells stably expressing human Nav1.5, read-out: Nav1.5 IC50 (1 Hz, ATXII). In kind it is cell-based.
Excerpt: as §1, §2, §3
To assess peak Nav1.5 current inhibition mimicking a ventricular condition at sinus rate with or without ATX-II (Nav1.5 IC50 (1 Hz, ATXII) (μM) or (1 Hz, Sinus Rate) (μM)), compounds were first prepared at 10 mM in DMSO, and cells were pre-incubated with test compounds at each concentration for 3 min. in an ascending order of 0, 0.37, 1.1, 3.3, 10 and 30 uM. In the assay with ATX-II (Alomone Labs), 50 nM ATX-II was included during the 3-min. compound incubation. A square pulse (−10 mV; 400 ms and a holding potential at −100 mV) was run at 1 Hz for 25 s until no further inhibition or Nav1.5 current change was observed. The percent inhibition (expressed as ([Iafter compound treatment/Ibefore compound treatment]×100%) is calculated by normalizing the peak current amplitude at the last pulse of each of the 6 compound concentrations by the amplitude before exposure to the test compound. The compiled data was further normalized by vehicle control (DMSO) to account for Nav1.5 current run-down, and IC50 was calculated by Matlab (MathWorks, USA).

[3] abbreviates: CHO-K1 cells stably expressing human Nav1.5, holding potential -85 mV, Table 5, read-out: Nav1.5 IC50 (5 Hz, AF Rate).
Setting [4] is: CHO-K1 cells stably expressing human Nav1.5, Table 6, Examples 63-90, read-out: Nav1.5 IC50 (5 Hz, AF Rate).

T1 sequence (Q14524 whole entry): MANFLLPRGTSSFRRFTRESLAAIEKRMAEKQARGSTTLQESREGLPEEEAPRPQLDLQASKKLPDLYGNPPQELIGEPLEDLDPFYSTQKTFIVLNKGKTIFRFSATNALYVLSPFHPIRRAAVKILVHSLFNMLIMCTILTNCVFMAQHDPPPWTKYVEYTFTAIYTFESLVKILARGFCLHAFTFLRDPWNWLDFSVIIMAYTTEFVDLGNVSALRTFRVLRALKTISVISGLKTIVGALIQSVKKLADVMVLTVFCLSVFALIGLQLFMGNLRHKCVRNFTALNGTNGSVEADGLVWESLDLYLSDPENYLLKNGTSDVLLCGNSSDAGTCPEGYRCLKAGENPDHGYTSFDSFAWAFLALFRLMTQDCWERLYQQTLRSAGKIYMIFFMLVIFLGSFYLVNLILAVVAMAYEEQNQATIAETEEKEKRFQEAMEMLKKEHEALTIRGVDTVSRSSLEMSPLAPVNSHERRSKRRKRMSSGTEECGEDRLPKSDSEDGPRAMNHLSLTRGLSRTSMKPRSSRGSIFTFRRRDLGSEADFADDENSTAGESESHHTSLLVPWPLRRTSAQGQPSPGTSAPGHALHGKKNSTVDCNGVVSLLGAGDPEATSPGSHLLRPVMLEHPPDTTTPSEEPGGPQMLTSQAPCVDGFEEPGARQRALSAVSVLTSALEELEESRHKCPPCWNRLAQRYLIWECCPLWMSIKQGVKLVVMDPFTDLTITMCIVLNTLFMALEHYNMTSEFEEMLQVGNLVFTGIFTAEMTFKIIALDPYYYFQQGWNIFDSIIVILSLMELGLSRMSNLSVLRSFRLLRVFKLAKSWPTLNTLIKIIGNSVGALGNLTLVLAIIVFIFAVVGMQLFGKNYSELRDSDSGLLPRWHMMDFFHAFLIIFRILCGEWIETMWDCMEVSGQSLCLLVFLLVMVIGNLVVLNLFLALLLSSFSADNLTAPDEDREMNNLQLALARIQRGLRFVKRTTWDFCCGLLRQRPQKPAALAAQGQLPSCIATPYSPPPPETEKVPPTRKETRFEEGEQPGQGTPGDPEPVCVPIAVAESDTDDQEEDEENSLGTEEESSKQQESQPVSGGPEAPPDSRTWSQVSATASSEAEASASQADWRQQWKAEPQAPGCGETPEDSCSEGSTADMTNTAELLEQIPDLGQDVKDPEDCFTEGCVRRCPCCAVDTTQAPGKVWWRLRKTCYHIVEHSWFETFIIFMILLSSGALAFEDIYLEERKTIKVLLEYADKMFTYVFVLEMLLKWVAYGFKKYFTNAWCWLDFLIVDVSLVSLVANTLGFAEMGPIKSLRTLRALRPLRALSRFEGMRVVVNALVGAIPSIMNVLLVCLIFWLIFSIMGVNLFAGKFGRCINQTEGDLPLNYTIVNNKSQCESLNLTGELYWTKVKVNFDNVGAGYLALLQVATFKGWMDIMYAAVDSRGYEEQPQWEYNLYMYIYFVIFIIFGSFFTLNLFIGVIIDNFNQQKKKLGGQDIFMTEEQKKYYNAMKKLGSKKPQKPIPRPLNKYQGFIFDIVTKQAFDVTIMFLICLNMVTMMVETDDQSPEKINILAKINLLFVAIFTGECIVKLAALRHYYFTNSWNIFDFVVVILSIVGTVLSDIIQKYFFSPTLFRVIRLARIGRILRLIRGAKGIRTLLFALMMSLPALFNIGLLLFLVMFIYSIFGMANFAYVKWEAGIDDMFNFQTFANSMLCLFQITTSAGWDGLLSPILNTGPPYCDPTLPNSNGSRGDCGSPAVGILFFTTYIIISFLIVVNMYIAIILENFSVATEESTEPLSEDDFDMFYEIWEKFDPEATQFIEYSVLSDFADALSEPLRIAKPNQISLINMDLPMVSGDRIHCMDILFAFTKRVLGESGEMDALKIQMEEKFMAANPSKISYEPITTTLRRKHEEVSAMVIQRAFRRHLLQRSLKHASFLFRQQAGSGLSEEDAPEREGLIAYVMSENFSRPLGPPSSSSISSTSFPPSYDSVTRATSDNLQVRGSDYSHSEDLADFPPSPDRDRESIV

The term IC50 denotes the midpoint of a concentration-inhibition curve. For the compound `NS(=O)(=O)CC(O)c1cccc(-c2ccn(Cc3cc(OC(F)(F)F)ccc3F)n2)n1` (racemic) [Example 36, 2-(6-(1-(2-fluoro-5-(trifluoromethoxy)benzyl)-1H-pyrazol-3-yl)pyridin-2-yl)-2-hydroxyethane-1-sulfonamide], the results for the IC50 on human Nav1.5 [1] (setting [3]) and at human Nav1.5 [2] were 3.7 µM and greater than 30 µM, respectively.
In the same order, the values of `NS(=O)(=O)CC(O)(c1cccc(-c2ccn(Cc3cc(OC(F)(F)F)ccc3F)n2)n1)C(F)(F)F` (racemic) [Example 39, 3,3,3-trifluoro-2-(6-(1-(2-fluoro-5-(trifluoromethoxy)benzyl)-1H-pyrazol-3-yl)pyridin-2-yl)-2-hydroxypropane-1-sulfonamide] are 4.4 µM and greater than 30 µM.
Regarding `CC(O)(CS(N)(=O)=O)c1ccc(Cl)c(-c2nnn(Cc3cc(OC(F)(F)F)ccc3F)n2)n1` (racemic) [Rac-27 + 28, 2-(5-chloro-6-(2-(2-fluoro-5-(trifluoromethoxy)benzyl)-2H-tetrazol-5-yl)pyridin-2-yl)-2-hydroxypropane-1-sulfonamide], the IC50 at human Nav1.5 [1] (setting [3]) turned out to be 1.1 µM; on human Nav1.5 [2], 16 µM.
In the same order, the values of `CC(O)(CS(N)(=O)=O)c1cccc(-c2cnn(Cc3cc(OC(F)(F)F)ccc3F)n2)n1` (racemic) [Rac-61 + 62] are 3.4 µM and greater than 30 µM.
In the same order, the values of `CC(O)(CS(N)(=O)=O)c1cccc(-c2nnn(Cc3cc(C(F)(F)F)ccc3F)n2)n1` (single isomer, unassigned) [Example 19, (R or S)-2-(6-(2-(2-fluoro-5-(trifluoromethyl)benzyl)-2H-tetrazol-5-yl)pyridin-2-yl)-2-hydroxypropane-1-sulfonamide] are 5 µM and 14 µM.
Turning to `CC(O)(CS(N)(=O)=O)c1cccc(-c2nnn(Cc3cc(C(F)(F)F)ccc3F)n2)n1` (single isomer, unassigned) [Example 20, (R or S)-2-(6-(2-(2-fluoro-5-(trifluoromethyl)benzyl)-2H-tetrazol-5-yl)pyridin-2-yl)-2-hydroxypropane-1-sulfonamide], the figures for the IC50 at human Nav1.5 [1] (setting [3]) and at human Nav1.5 [2] were 7.9 µM and 23 µM, respectively.
For the compound `CC(O)(CS(N)(=O)=O)c1cccc(-c2nnn(Cc3cc(Cl)ccc3F)n2)n1` (single isomer, unassigned) [Example 21, (R or S)-2-(6-(2-(5-chloro-2-fluorobenzyl)-2H-tetrazol-5-yl)pyridin-2-yl)-2-hydroxypropane-1-sulfonamide], the 50% inhibitory concentration (IC50) at human Nav1.5 [1] (setting [3]) was 6.3 µM; on human Nav1.5 [2] it was greater than 30 µM.
Regarding `CC(O)(CS(N)(=O)=O)c1cccc(-c2nnn(Cc3cc(Cl)ccc3F)n2)n1` (single isomer, unassigned) [Example 22, (R or S)-2-(6-(2-(5-chloro-2-fluorobenzyl)-2H-tetrazol-5-yl)pyridin-2-yl)-2-hydroxypropane-1-sulfonamide], the IC50 at human Nav1.5 [1] (setting [3]) came to 8.4 µM; on human Nav1.5 [2], 22 µM.
Consider `CC(O)(CS(N)(=O)=O)c1ccc(Cl)c(-c2nnn(Cc3cc(OC(F)(F)F)ccc3F)n2)n1` (single isomer, unassigned) [Example 27, (R or S)-2-(5-chloro-6-(2-(2-fluoro-5-(trifluoromethoxy)benzyl)-2H-tetrazol-5-yl)pyridin-2-yl)-2-hydroxypropane-1-sulfonamide], for which the IC50 on human Nav1.5 [1] (setting [3]) came to 0.8 µM; on human Nav1.5 [2], 4.1 µM.
As to `CC(O)(CS(N)(=O)=O)c1ccc(Cl)c(-c2nnn(Cc3cc(OC(F)(F)F)ccc3F)n2)n1` (single isomer, unassigned) [Example 28, (R or S)-2-(5-chloro-6-(2-(2-fluoro-5-(trifluoromethoxy)benzyl)-2H-tetrazol-5-yl)pyridin-2-yl)-2-hydroxypropane-1-sulfonamide], the IC50 amounted to 0.7 µM at human Nav1.5 [1] (setting [3]) and 3.2 µM on human Nav1.5 [2].
In the same order, the values of `CC(O)(CS(N)(=O)=O)c1cccc(-c2ccn(Cc3cc(OC(F)(F)F)ccc3F)n2)n1` (single isomer, unassigned) [Example 37, (R or S)-2-(6-(1-(2-fluoro-5-(trifluoromethoxy)benzyl)-1H-pyrazol-3-yl)pyridin-2-yl)-2-hydroxypropane-1-sulfonamide] are 1.3 µM and 14 µM.
Turning to `C[C@](O)(CS(N)(=O)=O)c1cccc(-c2nnn(Cc3cc(C(F)(F)F)ccc3Cl)n2)n1` [Example 74], on human Nav1.5 [1] (setting [4]), the IC50 was found to be 21 µM.
Still for that read-out and setting: the result for `C[C@](O)(CS(N)(=O)=O)c1cccc(-c2nnn(Cc3cccc(OC(F)(F)F)c3F)n2)n1` [Example 75] reads 4.8 µM; that for `COc1ccc(F)c(Cn2nnc(-c3cccc([C@@](C)(O)CS(N)(=O)=O)n3)n2)c1` [Example 76], 17 µM.
Consider `C[C@](O)(CS(N)(=O)=O)c1cccc(-c2nnn(Cc3cc(OC(F)(F)F)ccc3Cl)n2)n1` [Example 77], for which the IC50 on human Nav1.5 [1] (setting [4]) was determined as 13 µM.
In the case of `C[C@](O)(CS(N)(=O)=O)c1cccc(-c2nnn(Cc3cc(Cl)ccc3Cl)n2)n1` [Example 78], the 50% inhibitory concentration (IC50) on human Nav1.5 [1] (setting [4]) was found to be 10 µM.
On the same count and under the same terms, the result for `C[C@](O)(CS(N)(=O)=O)c1cccc(-c2nnn(Cc3c(F)cccc3C(F)(F)F)n2)n1` [Example 79] reads 13 µM; that for `C[C@](O)(CS(N)(=O)=O)c1cccc(-c2nnn(Cc3ccc(Cl)c(C(F)(F)F)c3)n2)n1` [Example 80], 14 µM.
With `C[C@](O)(CS(N)(=O)=O)c1cccc(-c2nnn(Cc3cc(Cl)c(F)cc3F)n2)n1` [Example 81], the IC50 on human Nav1.5 [1] (setting [4]) was found to be 21 µM.
Still for that read-out and setting: with `C[C@](O)(CS(N)(=O)=O)c1cccc(-c2nnn(Cc3cccc(OC(F)(F)F)c3)n2)n1` [Example 82] the figure was 7.3 µM; with `C[C@](O)(CS(N)(=O)=O)c1cccc(-c2nnn(Cc3cc(C(F)(F)F)cc(C(F)(F)F)c3)n2)n1` [Example 83], 18 µM; with `C[C@](O)(CS(N)(=O)=O)c1cccc(-c2nnn(Cc3cc(OC(F)F)ccc3F)n2)n1` [Example 84], 14 µM.
The same measure, in the same setting: the result for `C[C@](O)(CS(N)(=O)=O)c1cccc(-c2nnn(Cc3c(Cl)cccc3Cl)n2)n1` [Example 85] reads 5.2 µM.
For the compound `C[C@](O)(CS(N)(=O)=O)c1cccc(-c2nnn(Cc3cc(OC(F)(F)F)ccc3Br)n2)n1` [Example 86], the IC50 on human Nav1.5 [1] (setting [4]) turned out to be 6.3 µM.
Still for that read-out and setting: the result for `C[C@](O)(CS(N)(=O)=O)c1cccc(-c2nnn(Cc3c(C(F)(F)F)ccc(Cl)c3Cl)n2)n1` [Example 87] reads 9.3 µM.
On the same count and under the same terms, the result for `C[C@](O)(CS(N)(=O)=O)c1cccc(-c2nnn(Cc3cc(Cl)cc(OC(F)(F)F)c3)n2)n1` [Example 88] reads 28 µM.
Regarding `C[C@](O)(CS(N)(=O)=O)c1cccc(-c2nnn(Cc3cc(Cl)ccc3C(F)(F)F)n2)n1` [Example 89], the half-inhibitory concentration (IC50) on human Nav1.5 [1] (setting [4]) was found to be 27 µM.
Still for that read-out and setting: the result for `C[C@](O)(CS(N)(=O)=O)c1cccc(-c2nnn(Cc3cc(Cl)cc(Cl)c3Cl)n2)n1` [Example 90] reads 8.9 µM.
